Data reported in US5106407A, “Iodones and methods for antimicrobial use” (priority 1989, dated 1992).
≈ marks a conversion by molar mass, not a printed value. Like-named read-outs stand apart in the source and are kept apart here.

Columns and labels:
Bacillus subtilis = test: minimum inhibitory concentration (MIC), agar dilution; assay type: cell-based; details: for MIC: Bacillus subtilis
Experimental: (§1) The minimum inhibitory concentration (MIC) for the compound of Example 19, i.e., (2-nitrophenyl)-iodonium 2,2-dimethyl-4,6-dioxo-1,3-dioxan-5-ylide was determined for 9 bacteria (using nutrient agar) and 5 yeast and fungi (using malt yeast agar). A one percent solution of this test compound (i.e., the compound of Example 19) was prepared in a mixture of acetone-water. Nutrient agar was prepared at pH 6.8 using deionized water according to standard Difco procedures. Malt yeast agar was prepared by adding 3 g Bacto yeast extract and 42 g Bacto Malt agar per liter of deionized water. The agar (nutrient agar when testing with bacteria and malt yeast agar when testing with yeast and fungi) was dispensed in 30 mL aliquots into 25×200 millimeter (mm) test tubes, capped and autoclaved for 15 min at 115° C. The test tubes containing the agar were cooled in a water bath until the temperature of the agar was 48° C. and then an appropriate amount of the one percent solution of the test compound was added (except in the controls where no test compound was added with the acetone-water) to the respective test tubes so that final concentrations of 500, 250, 100, 50, 25, 10, 5, 2.5, 1.0 and 0 parts per million (ppm) of the test compound in the agar were obtained. The agar solutions were each mixed and poured into individual petri plates so that each petri plate contained agar having a known concentration of test compound dispersed therein. After drying for 24 hr, the petri plates were inoculated with bacteria when the petri plates contained nutrient broth agar or with fungi and yeast when the petri plates contained malt yeast agar.
(§2) The inoculation with bacteria was accomplished using the following procedure. Twenty-four hr cultures of each of the bacteria were prepared by incubating the respective bacteria in tubes containing nutrient broth for 24 hr at 30° C. in a shaker. Dilutions of each of the 24 hr cultures were made so that 9 separate suspensions (one for each of the 9 test bacteria) were made, each containing about 10^8 colony forming units (CFU) per mL of suspension of a particular bacteria. Aliquots of 0.3 mL of each of the above suspensions were used to fill individual wells of a Steer's Replicator. For each microbial suspension, 0.3 mL was used to fill 3 wells (i.e., 3 wells of 0.3 mL each) so that for the 9 different bacteria 27 wells were filled. The Steer's Replicator was then used to inoculate the petri plates.
(§3) The petri plates were incubated at 30° C. for 48 hr and then read to determine if the test compound (i.e., the compound of Example 19) which was incorporated into the agar prevented growth of the respective bacteria. The minimum inhibitory concentration (MIC) for each bacteria was defined as the lowest concentration of the test compound which prevented growth of that bacteria.
(§4) In a similar procedure, the MIC (in ppm) of the compound of Example 11 (i.e., (2-nitrophenyl)-iodonium 2,6-dioxocyclohexylide) for various organisms was determined at an acid pH (about 6.8) and at an alkaline pH (about 8.2).
(§5) Using similar procedures, the MIC's (in ppm) of various compounds of Formula I and/or Formula II were determined for the organisms Enterobacter aerogenes and Bacillus subtilis in a neutral solution (pH about 6.8) and in an alkaline medium (pH about 8.2).

Enterobacter aerogenes = test: as above; assay type: cell-based; details: for MIC: Klebsiella aerogenes
Experimental: as §1, §2, §3, §4, §5

[1] = alkaline growth medium (pH = 8.2), read-out: MIC (ABS)
[2] = neutral growth medium (pH = 6.8), read-out: MIC (NBS)
[3] = alkaline growth medium (pH = 8.2), read-out: MIC (AEA)
[4] = neutral growth medium (pH = 6.8), read-out: MIC (NEA)
[5] = alkaline growth medium (pH = 8.2)
[6] = neutral growth medium (pH = 6.8)

Row | Compound | MIC (Bacillus subtilis; [1]) | MIC (Bacillus subtilis; [2]) | MIC (Enterobacter aerogenes; [3]) | MIC (Enterobacter aerogenes; [4]) | MIC (ABS) (Bacillus subtilis; [5]) | MIC (NBS) (Bacillus subtilis; [6]) | MIC (AEA) (Enterobacter aerogenes; [5]) | MIC (NEA) (Enterobacter aerogenes; [6])
1 | O=C1CCC(=O)[C-]1[I+]c1ccccc1[N+](=O)[O-] [Example 10, (2-Nitrophenyl)-iodonium 2,5-dioxocyclopentyl-1-ylide] | > 500 µg/mL | 25 µg/mL (≈ 72.4 µM) | > 500 µg/mL | ≤ 10 µg/mL |  |  |  | 
2 | CC1(C)CC(=O)[C-]([I+]c2ccccc2S(C)(=O)=O)C(=O)C1 [Example 12, ((2-Methylsulfonyl)phenyl)-iodonium 4,4-dimethyl-2,6-dioxocyclohexan-1-ylide] | 100 µg/mL (≈ 238 µM) | 250 µg/mL (≈ 595 µM) | > 500 µg/mL | > 500 µg/mL |  |  |  | 
3 | CC1(C)CC(=O)[C-]([I+]c2ccccc2[N+](=O)[O-])C(=O)C1 [Example 14, (2-Nitrophenyl)-iodonium 4,4-dimethyl-2,6-dioxocyclohexylide] | ≤ 1 µg/mL | 2.5 µg/mL (≈ 6.46 µM) | ≤ 1 µg/mL | 2.5 µg/mL (≈ 6.46 µM) |  |  |  | 
4 | CC1CC(=O)[C-]([I+]c2ccccc2[N+](=O)[O-])C(=O)C1 [Example 15, (2-Nitrophenyl)-iodonium 4-methyl-2,6-dioxocyclohexan-1-ylide] | ≤ 10 µg/mL | ≤ 10 µg/mL | 100 µg/mL (≈ 268 µM) | ≤ 10 µg/mL |  |  |  | 
5 | Cc1ccc([I+][C-]2C(=O)OC(C)(C)OC2=O)c([N+](=O)[O-])c1 [Example 16, (4-Methyl-2-nitrophenyl)-iodonium 2,2-dimethyl-4,6-dioxo-1,3-dioxan-5-ylide] | 5 µg/mL (≈ 12.3 µM) | 2.5 µg/mL (≈ 6.17 µM) | 10 µg/mL (≈ 24.7 µM) | 2.5 µg/mL (≈ 6.17 µM) |  |  |  | 
6 | Cc1ccc(I=C2C(=O)OC(C)(C)OC2=O)c([N+](=O)[O-])c1C [Example 17, (3,4-Dimethyl-2-nitrophenyl)-iodonium 2,2-dimethyl-4,6-dioxo-1,3-dioxan-5-ylide] |  |  |  |  | < 10 ppm | < 10 ppm | 25 ppm | 25 ppm
7 | CC1(C)OC(=O)[C-]([I+]c2ccc(Cl)cc2[N+](=O)[O-])C(=O)O1 [Example 18, (4-chloro-2-nitrophenyl)-iodonium 2,2-dimethyl-4,6-dioxo-1,3-dioxan-5-ylide] | 250 µg/mL (≈ 587 µM) | 100 µg/mL (≈ 235 µM) | 250 µg/mL (≈ 587 µM) | 100 µg/mL (≈ 235 µM) |  |  |  | 
8 | COc1ccc([I+][C-]2C(=O)OC(C)(C)OC2=O)c([N+](=O)[O-])c1 [Example 20, (4-Methoxy-2-nitrophenyl)-iodonium 2,2-dimethyl-4,6-dioxo-1,3-dioxan-5-ylide] | 25 µg/mL (≈ 59.4 µM) | ≤ 10 µg/mL | 25 µg/mL (≈ 59.4 µM) | ≤ 10 µg/mL |  |  |  | 
9 | CC1(C)OC(=O)[C-]([I+]c2ccccc2S(C)(=O)=O)C(=O)O1 [Example 21, ((2-Methylsulfonyl)phenyl)-iodonium 2,2-dimethyl-4,6-dioxo-1,3-dioxan-5-ylide] | 50 µg/mL (≈ 118 µM) | 25 µg/mL (≈ 58.9 µM) | > 500 µg/mL | > 500 µg/mL |  |  |  | 
10 | O=c1oc2ccc(F)cc2c(=O)[c-]1[I+]c1ccccc1[N+](=O)[O-] [Example 22, (2-Nitrophenyl)-iodonium 6-fluoro-3,4-dihydro-2,4-dioxo-2H-benzopyran-3-ylide] | 100 µg/mL (≈ 234 µM) | ≤ 10 µg/mL | 250 µg/mL (≈ 585 µM) | ≤ 10 µg/mL |  |  |  | 
11 | O=c1oc2ccc(Br)cc2c(=O)[c-]1[I+]c1ccccc1[N+](=O)[O-] [Example 23, (2-Nitrophenyl)-iodonium 6-bromo-3,4-dihydro-2,4-dioxo-2H-benzopyran-3-ylide] | 250 µg/mL (≈ 512 µM) | 100 µg/mL (≈ 205 µM) | > 500 µg/mL | > 500 µg/mL |  |  |  | 
12 | O=C(O)c1ccc2oc(=O)[c-]([I+]c3ccccc3[N+](=O)[O-])c(=O)c2c1 [Example 26, (2-Nitrophenyl)-iodonium 6-carboxy-3,4-diohydro-2,4-dioxo-2H -benzopyran-3-ylide] | 250 µg/mL (≈ 552 µM) | ≤ 10 µg/mL | 250 µg/mL (≈ 552 µM) | 250 µg/mL (≈ 552 µM) |  |  |  | 
13 | CS(=O)(=O)c1ccccc1[I+][c-]1c(=O)oc2ccc(Cl)cc2c1=O [Example 27, ((2-Methylsulfonyl)phenyl)-iodonium 6-chloro-3,4-dihydro-2,4-dioxo-2H-benzopyran-3-ylide] | ≤ 10 µg/mL | ≤ 10 µg/mL | > 500 µg/mL | > 500 µg/mL |  |  |  | 
14 | COc1ccc2oc(=O)[c-]([I+]c3ccccc3S(C)(=O)=O)c(=O)c2c1 [Example 28, ((2-Methylsulfonyl)phenyl)-iodonium 3,4-dihydro-6-methoxy-2,4-dioxo-2H-benzopyran-3-ylide] | ≤ 10 µg/mL | ≤ 10 µg/mL | > 500 µg/mL | > 500 µg/mL |  |  |  | 
15 | CS(=O)(=O)c1ccccc1[I+][c-]1c(=O)oc2ccc(C(=O)O)cc2c1=O [Example 29, ((2-Methylsulfonyl)phenyl)-iodonium 6-carboxy-3,4-dihydro-2,4-dioxo-2H-benzopyran-3-ylide] | ≤ 10 µg/mL | ≤ 10 µg/mL | > 500 µg/mL | > 500 µg/mL |  |  |  | 
16 | CS(=O)(=O)c1ccccc1[I+][c-]1c(=O)oc2ccc(Br)cc2c1=O [Example 30, ((2-Methylsulfonyl)phenyl)-iodonium 6-bromo-3,4-dihydro-2,4-dioxo-2H-benzopyran-3-ylide] | ≤ 10 µg/mL | ≤ 10 µg/mL | > 500 µg/mL | > 500 µg/mL |  |  |  | 
17 | O=c1oc2ccccc2c(=O)[c-]1[I+]c1ccccc1[N+](=O)[O-] [Example 32, (2-Nitrophenyl)-iodonium 3,4-dihydro-2,4-dioxo-2H-benzopyran-3-ylide] | ≤ 10 µg/mL | ≤ 10 µg/mL | 25 µg/mL (≈ 61.1 µM) | ≤ 10 µg/mL |  |  |  | 
18 | COc1ccc2oc(=O)[c-]([I+]c3ccccc3[N+](=O)[O-])c(=O)c2c1 [Example 33, (2-Nitrophenyl)-iodonium 3,4-dihydro-6-methoxy-2,4-dioxo-2H-benzopyran-3-ylide] | ≤ 10 µg/mL | ≤ 10 µg/mL | > 500 µg/mL | > 500 µg/mL |  |  |  | 
19 | Cc1cccc2c(=O)[c-]([I+]c3ccccc3[N+](=O)[O-])c(=O)oc12 [Example 34, (2-Nitrophenyl)-iodonium 3,4-dihydro-8-methyl-2,4-dioxo-2H-benzopyran-3-ylide] | 25 µg/mL (≈ 59.1 µM) | ≤ 10 µg/mL | 500 µg/mL (≈ 1180 µM) | 500 µg/mL (≈ 1180 µM) |  |  |  | 
20 | CCn1c(=O)[c-]([I+]c2ccccc2[N+](=O)[O-])c(=O)n(CC)c1=S [Example 36, (2-Nitrophenyl)-iodonium 1,3-diethylhexahydro-4,6-dioxo-2-thiopyrimidin-5-ylide] | > 500 µg/mL | > 500 µg/mL | > 500 µg/mL | 500 µg/mL (≈ 1120 µM) |  |  |  | 
21 | O=c1[nH]c2ccccc2c(=O)[c-]1[I+]c1ccccc1[N+](=O)[O-] [Example 41, (2-Nitrophenyl)-iodonium 1,2,3,4-tetrahydro-2,4-dioxoquinolin-3-ylide] | 500 µg/mL (≈ 1230 µM) | ≤ 10 µg/mL | > 500 µg/mL | ≤ 10 µg/mL |  |  |  | 
22 | CS(=O)(=O)c1ccccc1[I+][c-]1c(=O)cc[nH]c1=O [Example 42, ((2-Methylsulfonyl)phenyl)-iodonium 1,2,3,4-tetrahydro-2,4-dioxopyridine3-ylide] | 500 µg/mL (≈ 1280 µM) | 500 µg/mL (≈ 1280 µM) | > 500 µg/mL | 500 µg/mL (≈ 1280 µM) |  |  |  | 
23 | O=c1cc[nH]c(=O)[c-]1[I+]c1ccccc1[N+](=O)[O-] [Example 43, (2-Nitrophenyl)-iodonium 1,2,3,4-tetrahydro-2,4-dioxopyridin-3-ylide] | 500 µg/mL (≈ 1400 µM) | 50 µg/mL (≈ 140 µM) | > 500 µg/mL | 500 µg/mL (≈ 1400 µM) |  |  |  | 
24 | O=c1[nH]c(=O)[c-]([I+]c2ccccc2[N+](=O)[O-])c(=O)[nH]1 [Example 44, (2-Nitrophenyl)-iodonium hexahydro-2,4,6-trioxo-5-pyrimidin-1-ylide] | > 500 µg/mL | 100 µg/mL (≈ 267 µM) | 500 µg/mL (≈ 1330 µM) | 100 µg/mL (≈ 267 µM) |  |  |  | 
25 | Cc1cc(=O)[c-]([I+]c2ccccc2S(C)(=O)=O)c(=O)o1 [Example 46, ((2-Methylsulfonyl)phenyl)-iodonium 3,4-dihydro-6-methyl-2,4-dioxo-2H-pyran-3-ylide] | ≤ 10 µg/mL | ≤ 10 µg/mL | 50 µg/mL (≈ 123 µM) | 100 µg/mL (≈ 246 µM) |  |  |  | 
26 | (2-Nitrophenyl)-iodonium 3,4,5,6-tetrahydro-4,6-doxo-5-pyrimidinylide [Example 35] |  |  |  |  |  |  | > 500 ppm | 
